2 compounds from patent US11360080B2, “AhR-ROR-γt complex as a biomarker and therapeutic target for autoimmune disease and IL-17A-associated disease” (NATIONAL HEALTH RESEARCH INSTITUTES, priority 2018, dated 2022) can be followed below.

For experiment [1], the target named is T1, GLK kinase domain (Homo sapiens, UniProt Q8IVH8).
T1 construct: recombinant proteins of the GLK kinase-domain (1 μg) were incubated with recombinant proteins of kinase-dead PKCθ
T1 sequence (Q8IVH8 16-273 limits assumed): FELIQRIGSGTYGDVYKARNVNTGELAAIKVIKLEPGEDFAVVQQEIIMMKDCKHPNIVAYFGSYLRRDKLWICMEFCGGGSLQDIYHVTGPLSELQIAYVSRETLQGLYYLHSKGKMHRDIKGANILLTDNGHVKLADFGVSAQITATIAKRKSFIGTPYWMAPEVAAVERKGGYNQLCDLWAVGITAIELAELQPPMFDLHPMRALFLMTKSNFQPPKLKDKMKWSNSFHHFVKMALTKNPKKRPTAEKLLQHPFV
Nature of the experiment: In vitro GLK kinase assay (ADP-GLO) with kinase-dead PKCθ (K409W) as substrate. As to conditions: screening of 101,200 compounds. The experiment is classed as biochemical. How it is done:
(§1) (A) Luciferase activity of NF-κB-driven reporter assays in stable GLK-transfected CHO-K1 cells that were treated with or without the GLK inhibitor C1 (verteporfin) under the indicated concentration. The fold changes are presented relative to the value of vector control. (B) Recombinant proteins of GLK kinase domain plus recombinant proteins of GST-tagged kinase-dead PKCθ (K409W) were subjected to in vitro kinase assays in the presence or absence of the GLK inhibitor C1 (verteporfin). Means±SD of are shown. *, P value<0.05; **, P value<0.01 (two-tailed Student's t-test). (C) The AhR-RORγt complex was inhibited by the GLK inhibitor. Confocal microscopy of proximity ligation assays (PLA) for the interaction between AhR and either RORγt or phospho-RORγt (S489) in peripheral blood T cells treated with C1 (verteporfin) (5 μM) for 30 min. The T cells were freshly isolated from 4 SLE patients and 1 RA patients. C1 denotes verteporfin; C2 denotes alexidine dihydrochloride. (D) Quantification of the PLA signals of (C). (E) FRET assays of HEK293T cells co-transfected with CFP-AhR, YFP-RORγt, and IKKβ plasmids.
GLK kinase activity was determined by measuring the rate of ADP production in the in vitro kinase reaction using ADP-GLO™ Kinase Assay kit. For the kinase reaction, recombinant proteins of the GLK kinase-domain (1 μg) were incubated with recombinant proteins of kinase-dead PKCθ (K409W; 0.15 μg) plus ATP (0.1 mM) or myelin basic protein (MBP) plus ATP (0.1 mM) in kinase buffer (40 mM Tris-HCl, pH7.5.20 mM MgCl2, 0.1 mg/ml BSA, 10 mM DTT and 0.1 mM Na3VO4) for 30 min at room temperature.
Cell-based high-throughput screening was conducted against a representative library of 100,000 molecules at ˜10 μM. CHO-GLK-Luc cells expressing GLK and NF-κB-luciferase reporter were used. The reaction volume was 5 μl (500 cells) per well in 1,536-well plates. There was no positive control. This high-throughput screening campaign was successful with a determined Z′ factor of 0.57˜0.60. […]
For orientation: ADP-Glo first removes unused ATP, then detects ADP through luciferase.

Experiment [2] deals with LLC/luc cells. In words: LLC/luc metastatic lung cancer mouse model. Format: in vivo. As to conditions: C1 0.556 nmole/g, C2 0.085 nmole/g i.v. every 3 days for 30 days. The text has this: (A) The molecular docking of GLK kinase domain structure with C1 (verteporfin). A three-dimensional structure model depicts the binding of C1 to the predicted GLK kinase domain containing phosphorylated Ser-170. The putative binding affinity was −7.4 kcal/mol. (B) The molecular docking of GLK kinase domain structure with C2 (alexidine dihydrochloride). A three-dimensional structure model depicts the binding of C2 to the predicted GLK kinase domain containing phosphorylated Ser-170. The putative binding affinity was −7.0 kcal/mol. (C) Co-immunoprecipitation (co-IP) of Flag-tagged GLK and GFP-fusion GLK using lysates of HEK293T cells co-transfected with Flag-GLK and GFP-GLK plasmids. Cells were treated with C1 (verteporfin) or C2 (alexidine dihydrochloride). (D) Administration of the GLK inhibitor C1 (0.556 nmole/g) or C2 (0.085 nmole/g) every 3 days for 30 days in the LLC/luc metastatic lung cancer mouse model. (E) The luciferase activity in mice treated with C1 (verteporfin), C2 (alexidine dihydrochloride), or vehicle was detected by IVIS Spectrum. (F) Luminescent intensity of photons emitted from LLC/luc cells in the images in (e) was quantified. (G) Representative immunohistochemistry of H&E in lung tissues from mice treated with C1 (verteporfin), C2, or vehicle. Scale bar, 0.5 cm. (H) In situ PLA assays of the interaction between GLK and IQGAP1 (upper panel) or phosphorylated IQGAP1 Ser-480 (lower panel) in lung tissues from mice treated with C1 (verteporfin), C2 (alexidine dihydrochloride), or vehicle in the LLC/luc metastatic lung cancer mouse model. Original magnification, ×40. We studied whether GLK inhibitors also suppress cancer cell migration. […] Moreover, both C1 (verteporfin) and C2 (alexidine dihydrochloride) treatments suppressed tumor growth in the xenograft mouse model using TC-1 lung cancer cells (FIG. 15). To study whether GLK deficiency results in a reduction of lung cancer metastasis, we used a metastatic Lewis lung carcinoma (LLC) mouse model by tail vein injection of luciferase-expressing LLC (LLC/luc) cells. We identified two GLK inhibitors (verteporfin and alexidine dihydrochloride)) using cell-based assays and in vitro kinase assays. […] The dimerization of Flag-tagged GLK protein and GFP-GLK fusion protein was indeed blocked by the C1 (verteporfin) treatment (FIG. 16C). We treated the LLC/luc cells-containing mice with the GLK inhibitor C1 (verteporfin) or C2 (alexidine dihydrochloride) by intravenous injection every 3 days for 30 days (FIG. 16D). The luciferase activity of LLC/luc cells in the mice was detected by In Vivo Imaging System. The excised lungs were weighed and subjected to H&E staining. […] Inhibition of kinase activity of GLK (MAP4K3) or other MAP4Ks was determined by in vitro kinase assays using myelin basic protein (MBP) as a substrate. […]

Experiment [3] has as its system GLK-induced NF-κB-luciferase activity. In words: NF-κB-driven luciferase reporter assay in CHO-GLK-Luc cells. The experiment is classed as cell-based. Particulars: stable GLK-transfected CHO-K1 cells. How it is done: as §1
Cell-based high-throughput screening was conducted against a representative library of 100,000 molecules at ˜10 μM. CHO-GLK-Luc cells expressing GLK and NF-κB-luciferase reporter were used. […] This high-throughput screening campaign was successful with a determined Z′ factor of 0.57˜0.60. […]
In general terms: In a reporter assay the amount or activity of a reporter protein is the signal.

Where a name gives a salt, the structure may show the parent alone.

Take `CCCCC(CC)CNC(=N)NC(=N)NCCCCCCNC(=N)NC(=N)NCC(CC)CCCC` (stereo not drawn) [C2, alexidine dihydrochloride]: the “GLK kinase activity in vitro” value in experiment [1] was “efficiently inhibited”. In experiment [2], the “cancer colony in lung (histology)” value is on record as “reduction” and the “luciferase activity of LLC/luc cells in the lung” value is listed as “reduced”. Besides, the “GLK signaling in cell lines (luciferase reporter)” value in experiment [3] is listed as “efficiently inhibited”.
On to `C=Cc1c(C)c2cc3nc(cc4[nH]c(cc5nc(cc1[nH]2)C(C)=C5CCC(=O)O)c(CCC(=O)OC)c4C)[C@@]1(C)C3=CC=C(C(=O)OC)[C@H]1C(=O)OC` [C1, verteporfin], for which the “GLK kinase activity in vitro” value in experiment [1] is given as “efficiently inhibited”. In addition, in experiment [1] (listed as verteporfin), the “GLK kinase activity in vitro” value is reported as “most effective inhibitor”. Moreover, in experiment [2], the “cancer colony in lung (histology)” value is recorded as “reduction” and the “luciferase activity of LLC/luc cells in the lung” value is “reduced”. Besides, the “GLK signaling in cell lines (luciferase reporter)” value in experiment [3] is “efficiently inhibited”.
